This passage reports MIC results from patent US10294247B2, “Beta-lactamase inhibitors” (VenatoRx Pharmaceuticals, Inc., priority 2014, dated 2019).

What all share (format): cell-based
Experiment [1] deals with E. cloacae expressing the Class C P99. Nature of the experiment: broth microdilution MIC assay, E. cloacae P99. The conditions noted are these: Enterobacter cloacae, read-out: MIC alone. The text has this: (§1) To determine the ability of test compounds to potentiate the inhibition of the growth of bacterial strains that produce beta-lactamase enzymes, classic cell based broth microdilution MIC assays are employed. Six bacteria strains producing beta-lactamase enzymes are used: E. coli expressing the Class A Extended Spectrum Beta-Lactamase (ESBL) CTX-M-15, E. cloacae expressing the Class C P99, K. pneumoniae expressing the Class A carbapenemase KPC-3, P. aeruginosa expressing the Class B carbapenemase VIM-2, K. pneumoniae expressing the class A carbapenemase KPC-2 and the class B carbapenemase VIM-4, and S. aureus producing the Class A penicillinase PC-1. The assay is conducted in Cation Adjusted Mueller Hinton Broth (CAMHB, BD #212322, BD Diagnostic Systems, Sparks, Md.). Bacteria strains are grown for 3-5 hours in CAMBH broth. Test compounds are added to a microtiter plate in 2-fold serial dilutions in CAMHB in a final concentration range of 32 μg/mL to 0.25 μg/ml. An overlay of CAMHB containing a Beta-lactam is added to the compounds at a final static concentration of 4 μg/mL. […] After inoculation the plates are incubated for 16-20 hours at 37° C. then the Minimal Inhibitory Concentration (MIC) of the test compound is determined visually.

For experiment [2], the system named is E. coli expressing the Class A Extended Spectrum Beta-Lactamase (ESBL) CTX-M-15. Nature of the experiment: broth microdilution MIC assay, E. coli CTX-M-15. The conditions noted are these: Escherichia coli, read-out: MIC alone.
Text: as §1

For experiment [3], the system named is K. pneumoniae expressing the Class A carbapenemase KPC-3. Nature of the experiment: broth microdilution MIC assay, K. pneumoniae KPC-3. The conditions noted are these: Klebsiella pneumoniae, read-out: MIC alone.
Text: as §1

For experiment [4], the system named is P. aeruginosa expressing the Class B carbapenemase VIM-2. Nature of the experiment: broth microdilution MIC assay, P. aeruginosa VIM-2. The conditions noted are these: Pseudomonas aeruginosa, read-out: MIC alone.
Text: as §1

Experiment [5] deals with K. pneumoniae expressing the class A carbapenemase KPC-2 and the class B carbapenemase VIM-4. Nature of the experiment: broth microdilution MIC assay, K. pneumoniae KPC-2 and VIM-4. To be noted: Klebsiella pneumoniae; partner antibiotic alone, no inhibitor; K. pneumoniae expressing KPC-2 and VIM-4; CAMHB.
Text: as §1

Experiment [6] concerns S. aureus producing the Class A penicillinase PC-1. Nature of the experiment: broth microdilution MIC assay, S. aureus PC-1. To be noted: Staphylococcus aureus; partner antibiotic alone, no inhibitor; S. aureus producing Class A penicillinase PC-1; CAMHB.
Text: as §1

The structures appear in SMILES notation.

Regarding `CC(C)(O/N=C(\C(=O)N[C@@H]1C(=O)N2C(C(=O)[O-])=C(C[n+]3ccccc3)CS[C@H]12)c1csc(N)n1)C(=O)O` [Ceftazidime], the results for the MIC in experiment [1] and in experiment [2] were 128 µg/mL and over 128 µg/mL, respectively.

Turning to `C[C@@H](O)[C@H]1C(=O)N2C(C(=O)O)=C(S[C@@H]3CN[C@H](C(=O)N(C)C)C3)[C@H](C)[C@H]12` [Meropenem], the MIC in experiment [3] is over 128 µg/mL; in experiment [4], 16 µg/mL; in experiment [5] it was 64 µg/mL.

For the molecule `CCN1CCN(C(=O)N[C@@H](C(=O)N[C@@H]2C(=O)N3[C@@H]2SC(C)(C)[C@@H]3C(=O)O)c2ccccc2)C(=O)C1=O` [Piperacillin], in experiment [6], the MIC was 64 µg/mL.
